Data set [1] concerns BV-2 microglia.
Procedure: (§1) Each compound was dissolved in DMSO and further diluted in the medium to produce different concentrations with a maximum concentration of 50 μM. The absorbance was measured at 570 nm with a Multilabel Plate Reader (Sunrise TECAN, Männedorf, Switzerland). Cytotoxicity was determined with the MTT assay. Quercetin (Sigma-Aldrich, Foster City, CA, USA) was used as the positive control.
The test system of data set [2] is nitric oxide production in LPS-activated BV-2 microglia. Description: Inhibition of NO production in LPS-stimulated BV-2 microglia. The data set is classed as cell-based. The conditions noted are these: for inhibitory activity against nitric oxide production (in words): IC50 values lower than those of quercetin, the positive control. The protocol: Two new compounds and six known compounds caesalpin J (3), 1-hydroxy-7-methylxanthone (4), 1,5-dihydroxyxanthone (5), 1,7-dihydroxyxanthone (6), butein (7), and sappanone A (8) were evaluated for their inhibitory activities against nitric oxide production in LPS-activated BV-2 microglia according to a previously described method.
Cytotoxicity was determined with the MTT assay.

The nature of data set [3]: Cytotoxicity (cell viability) by MTT assay. The settings on record: mouse, BV-2 microglia cells, Viability (at 50 µM, %), compound at 50 µM. (In general: Formazan colour is commonly taken as a measure of viable cells.)
Procedure: as §1
Data set [4] deals with BV-2 microglia. Description: Cytotoxicity (cell viability) by MTT assay. The settings on record: compound at 50 µM, 50 µM.
Procedure: as §1
The mark [5] stands for this setting: LPS-activated BV-2 microglia, maximum concentration tested 50 μM, read-out: IC50 (µM), inhibition of NO production.
Where [6] appears, read: Mus musculus, BV-2, LPS-activated BV-2 microglia, maximum concentration tested 50 μM, read-out: IC50 (µM), inhibition of NO production.

Like-named read-outs stand apart in the source and are kept apart here.

What is called IC50 is the midpoint of a concentration-inhibition curve. By viability is commonly meant a read-out of living cells in per cent, often relative to untreated cells.

Take 1-hydroxy-7-methylxanthone [Compound 4]: the “Viability (at 50 µM, %)” value in data set [1] turned out to be 98.94%. For the same molecule, in data set [2] (LPS-activated BV-2 microglia), the “inhibitory activity against nitric oxide production (in words)” value (“inhibitory activity” for short) was “obvious inhibitory activity”. For the same molecule, the IC50 in data set [2] (setting [5]) is 14.2 µM.
Turning to `CO[C@H]1[C@]2(O)COC3=CC(=O)C=C[C@@]31c1cc(O)c(O)cc1C2` [Compound 1, epicaesalpin J], the IC50 in data set [2] (setting [6]) was 52.6 µM. Besides, in data set [3], the viability at 50 µM amounted to 96.5%.
For `O=C1C=CC23CC(O)(COC2=C1)Cc1cc(O)c(O)cc13` (stereo not drawn) [Compound 2, 7,10,11-trihydroxydracaenone], the IC50 in data set [2] (setting [6]) worked out at 56.7 µM. Further, the viability at 50 µM in data set [3] was determined as 99.3%.
Regarding `CO[C@H]1[C@]2(O)COC3=CC(=O)C=C[C@@]31c1cc(O)c(O)cc1C2` [Compound 3, caesalpin J], in data set [2] (setting [5]), the IC50 turned out to be 45.9 µM. For the same molecule, the “Viability (at 50 µM, %)” value in data set [4] is given as 96.13%.
Turning to `O=c1c2cccc(O)c2oc2cccc(O)c12` [Compound 5, 1,5-dihydroxyxanthone], the IC50 in data set [2] (setting [6]) came out at 28.7 µM. Also, in data set [3], the viability at 50 µM was determined as 101%.
Regarding `O=c1c2cc(O)ccc2oc2cccc(O)c12` [Compound 6, 1,7-dihydroxyxanthone], the “inhibitory activity” value in data set [2] (LPS-activated BV-2 microglia) is given as “obvious inhibitory activity”. The concentration for half-maximal inhibition (IC50) in data set [2] (Mus musculus, BV-2, read-out: IC50 (µM), inhibition of NO production) is 21.5 µM. For the same molecule, the viability at 50 µM in data set [3] amounted to 102%.
On to `O=C(/C=C/c1ccc(O)c(O)c1)c1ccc(O)cc1O` [Compound 7, butein], for which, in data set [2] (LPS-activated BV-2 microglia), the “inhibitory activity” value is reported as “obvious inhibitory activity”. The IC50 in data set [2] (setting [6]) amounted to 15.5 µM. For the same molecule, the viability at 50 µM in data set [3] came out at 94%.
For `O=C1/C(=C/c2ccc(O)c(O)c2)COc2cc(O)ccc21` [Compound 8, sappanone A], in that order: “obvious inhibitory activity”, 8.26 µM and 99.3%.
`O=c1c(O)c(-c2ccc(O)c(O)c2)oc2cc(O)cc(O)c12` [quercetin, reference compound]: the IC50 in data set [2] (setting [6]) is 23.4 µM.

For the origin of these results see publication PMC6270973, “Two New Phenolic Compounds from the Heartwood of Caesalpinia sappan L” (Molecules, 2013).
